Reference: ChEMBL document CHEMBL1201862, “PubChem BioAssay data set” (2004)
The source made the active and inactive calls.

Experiments:
[1] = test system: BJ; test: BJ-TERT-LT-ST fibroblast viability loss – cell-based, RAS-independent, luminescence, dose response (AID 1935); format: functional; conditions: Homo sapiens;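 note: BJ fibroblasts immortalized with TERT plus LT and ST oncogenes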
[2] = DRD fibroblast viability loss – cell-based, non-viral oncogenic, luminescence, dose response (AID 1934); format: functional; conditions: Homo sapiens
[3] = test system: Vero; test: cells; format: functional; conditions: Chlorocebus sabaeus
[4] = test system: Vero; test: cells; format: functional, cell-based; conditions: Chlorocebus sabaeus
[5] = loss of viability in HepG2 cells – cell-based, CellTiter-Glo, cherry-picked, cytotoxicity control for Shn3 inhibitor project, dose response (AID 624134); format: functional
[6] = Luminescence Cell-Based Dose Retest to Confirm Inhibitors of Cancer Stem Cells. [Related pubchem assays (depositor defined):AID2717, AID2721]; format: functional; conditions: Homo sapiens
[7] = target: T1, Type-1 angiotensin II receptor (Homo sapiens, UniProt P30556); test: antagonism of angiotensin II type 1 receptor – cell-based, uHTS hits, selectivity assay for APJ receptor antagonist project, dose response (AID 463214); format: functional;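 note: antagonist potency against angiotensin II stimulated AT1 response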
T1 sequence (P30556 whole entry): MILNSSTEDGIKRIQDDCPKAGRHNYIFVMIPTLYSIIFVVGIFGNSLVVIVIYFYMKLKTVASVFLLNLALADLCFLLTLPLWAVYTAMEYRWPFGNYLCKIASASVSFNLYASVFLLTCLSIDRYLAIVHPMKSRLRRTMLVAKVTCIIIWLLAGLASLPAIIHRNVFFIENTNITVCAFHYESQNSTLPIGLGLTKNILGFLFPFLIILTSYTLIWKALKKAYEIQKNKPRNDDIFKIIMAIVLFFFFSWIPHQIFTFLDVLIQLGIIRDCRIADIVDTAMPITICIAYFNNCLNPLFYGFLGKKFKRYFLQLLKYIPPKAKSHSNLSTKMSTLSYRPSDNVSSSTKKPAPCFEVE

[8] = test system: BJ; test: BJ-TERT fibroblast viability loss – cell-based, RAS-independent, luminescence, dose response (AID 1933); format: functional; conditions: Homo sapiens
[9] = test system: BJ; test: growth inhibition of engineered Ras-driven BJ cells – cell-based, alamar blue fluorescence, cherrypicked samples, dose response (AID 2631); format: functional; conditions: Homo sapiens;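 note: confirmatory dose-response assay in RAS-dependent BJ fibroblasts engineered with TERT, LT and ST, with cytotoxicity read by fluorescence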
[10] = reduction of Shn3 3'UTR-driven luciferase in osteoblasts – cell-based, Clone20 osteoblasts, firefly luciferase, cherry-picked, dose response (AID 624132); format: functional;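 note: firefly luciferase luminescence from reporter carrying the Shn3 3'UTR in osteoblasts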
[11] = target: Beta-galactosidase (Escherichia coli, UniProt Q8VNN2); test: PubChem AID 485352; format: functional
[12] = non-specific 3'UTR reporter inhibition in Clone20-Shn3RL – cell-based, Renilla luciferase, cherry-picked, counter-screen for Shn3 inhibitor project, dose response (AID 624133); format: functional
[13] = test system: BJ; test: cells; format: functional, cell-based; conditions: Homo sapiens
[14] = target: T2, Probable nicotinate-nucleotide adenylyltransferase (Staphylococcus aureus (strain N315), UniProt P65502); format: functional, Staphylococcus aureus subsp. aureus N315;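 for IC50 Mean: confirmatory dose-response retesting of NadD inhibitor hits first found in an ultra-high-throughput screen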
[15] = target: T3, Streptokinase A (Streptococcus pyogenes serotype M1, UniProt P10520); test: viability-normalized secreted streptokinase activity reduction – plasminogen activation absorbance, OD405, dose response (AID 1914); format: functional, Streptococcus pyogenes M1 GAS;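 note: secreted streptokinase activity via plasminogen activation per viability signal from cell pellet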
T3 sequence (P10520 whole entry): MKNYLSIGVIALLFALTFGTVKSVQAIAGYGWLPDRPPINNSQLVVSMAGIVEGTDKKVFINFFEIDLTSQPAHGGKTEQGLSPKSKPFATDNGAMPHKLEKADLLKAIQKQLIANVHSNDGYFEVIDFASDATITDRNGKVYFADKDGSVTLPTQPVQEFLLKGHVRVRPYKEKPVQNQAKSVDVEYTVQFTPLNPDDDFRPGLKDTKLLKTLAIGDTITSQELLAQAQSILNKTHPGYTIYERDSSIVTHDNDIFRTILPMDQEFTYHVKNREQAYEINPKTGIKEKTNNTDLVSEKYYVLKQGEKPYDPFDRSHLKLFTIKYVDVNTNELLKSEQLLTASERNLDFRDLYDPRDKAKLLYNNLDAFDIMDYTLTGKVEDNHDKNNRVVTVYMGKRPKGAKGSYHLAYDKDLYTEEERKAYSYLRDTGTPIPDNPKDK

[16] = target: T4, Zinc finger protein mex-5 (Caenorhabditis elegans, UniProt Q9XUB2); test: potency of MEX-5 RNA-binding blockers – biochemical, C. elegans, fluorescence polarization, dose response (AID 1960)
T4 sequence (Q9XUB2 whole entry): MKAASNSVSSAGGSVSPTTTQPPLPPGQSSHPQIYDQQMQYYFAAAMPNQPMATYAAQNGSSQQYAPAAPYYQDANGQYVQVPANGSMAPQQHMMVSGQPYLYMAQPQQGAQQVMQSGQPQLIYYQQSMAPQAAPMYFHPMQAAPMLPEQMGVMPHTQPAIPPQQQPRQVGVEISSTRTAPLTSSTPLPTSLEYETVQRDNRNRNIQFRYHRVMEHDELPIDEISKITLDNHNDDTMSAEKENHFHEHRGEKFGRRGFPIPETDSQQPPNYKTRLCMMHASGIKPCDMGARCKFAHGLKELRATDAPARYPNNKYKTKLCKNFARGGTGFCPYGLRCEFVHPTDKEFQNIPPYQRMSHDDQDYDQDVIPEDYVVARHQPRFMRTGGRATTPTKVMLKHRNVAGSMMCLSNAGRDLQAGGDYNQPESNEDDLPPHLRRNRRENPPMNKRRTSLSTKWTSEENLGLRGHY

[17] = target: T2, Probable nicotinate-nucleotide adenylyltransferase; format: functional, Staphylococcus aureus subsp. aureus N315; conditions: read-out: IC50_Mean
[18] = test system: Streptococcus; test: GAS UMAA2166 growth inhibition – luminescence, BacTiterGlo, counter-screen for streptokinase expression inhibitor project, dose response (AID 1915); format: functional, organism-based;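 note: potency for reduction of bacterial viability or growth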
[19] = target: T5, RNA-binding protein pos-1 (Caenorhabditis elegans, UniProt G5EF15); test: disruptors of C. elegans POS-1 RNA interaction – biochemical, fluorescence polarization, dose response (AID 1964);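 note: purified POS-1 fused to maltose binding protein made in E. coli; potency of compounds blocking POS-1 binding to fluorescent RNA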
T5 sequence (G5EF15 whole entry): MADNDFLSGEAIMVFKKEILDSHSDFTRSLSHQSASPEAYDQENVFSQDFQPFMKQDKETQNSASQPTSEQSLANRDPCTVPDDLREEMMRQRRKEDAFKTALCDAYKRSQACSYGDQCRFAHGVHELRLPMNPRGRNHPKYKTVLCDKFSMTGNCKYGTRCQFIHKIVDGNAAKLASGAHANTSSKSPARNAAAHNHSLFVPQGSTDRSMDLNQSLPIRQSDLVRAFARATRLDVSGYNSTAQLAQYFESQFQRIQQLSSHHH

[20] = target: T6, Rac GTPase-activating protein 1 (Homo sapiens, UniProt Q9H0H5); test: blockers of MgcRacGAP-driven Rac1 GTP hydrolysis – biochemical, ADP Hunter fluorescence, primary and confirmatory, confirmation (AID 624330); format: functional
T6 sequence (Q9H0H5 whole entry): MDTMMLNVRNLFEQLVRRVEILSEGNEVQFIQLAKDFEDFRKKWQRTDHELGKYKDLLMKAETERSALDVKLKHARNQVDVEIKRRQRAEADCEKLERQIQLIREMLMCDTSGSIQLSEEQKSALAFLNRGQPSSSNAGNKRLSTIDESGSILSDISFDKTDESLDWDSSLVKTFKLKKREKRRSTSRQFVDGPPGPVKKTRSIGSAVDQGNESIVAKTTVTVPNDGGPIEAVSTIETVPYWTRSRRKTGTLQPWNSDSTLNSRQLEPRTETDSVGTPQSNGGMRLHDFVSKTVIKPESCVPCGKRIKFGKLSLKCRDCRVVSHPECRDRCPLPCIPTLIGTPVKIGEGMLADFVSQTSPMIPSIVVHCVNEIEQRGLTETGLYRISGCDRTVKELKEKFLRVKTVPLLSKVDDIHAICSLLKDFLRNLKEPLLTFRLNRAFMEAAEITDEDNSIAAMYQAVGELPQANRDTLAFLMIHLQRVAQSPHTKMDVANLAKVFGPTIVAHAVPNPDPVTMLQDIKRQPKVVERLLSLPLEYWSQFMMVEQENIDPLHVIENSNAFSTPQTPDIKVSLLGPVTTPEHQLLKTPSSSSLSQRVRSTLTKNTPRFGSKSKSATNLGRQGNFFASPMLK

[21] = test system: Streptococcus sp. 'group A'; test: Streptococcus pyogenes SK(-)GAS viability under kanamycin – luminescence, BacTiterGlo, confirmation, counter-screen for streptokinase expression inhibitor project, dose response (AID 1900); format: functional, organism-based
[22] = test system: H9c2; test: cells; format: functional, cell-based; conditions: Rattus norvegicus, H9c2, Myocardium;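 note: confirmatory concentration-response retest of ultra-high-throughput screening hits for modulation of myocardial damage; cell death induced by hydrogen peroxide oxidative stress; compound pretreatment for 60 min then peroxide exposure for 2 h; potency is for protecting the cells against peroxide damage rather than for killing them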

T2 sequence (P65502 whole entry): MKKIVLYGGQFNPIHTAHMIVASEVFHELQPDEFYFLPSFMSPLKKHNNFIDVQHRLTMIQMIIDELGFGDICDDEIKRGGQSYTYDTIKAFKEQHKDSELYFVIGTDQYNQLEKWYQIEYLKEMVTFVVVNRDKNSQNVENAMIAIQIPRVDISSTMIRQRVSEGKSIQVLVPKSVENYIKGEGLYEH
Beta-galactosidase, sequence (Q8VNN2 whole entry): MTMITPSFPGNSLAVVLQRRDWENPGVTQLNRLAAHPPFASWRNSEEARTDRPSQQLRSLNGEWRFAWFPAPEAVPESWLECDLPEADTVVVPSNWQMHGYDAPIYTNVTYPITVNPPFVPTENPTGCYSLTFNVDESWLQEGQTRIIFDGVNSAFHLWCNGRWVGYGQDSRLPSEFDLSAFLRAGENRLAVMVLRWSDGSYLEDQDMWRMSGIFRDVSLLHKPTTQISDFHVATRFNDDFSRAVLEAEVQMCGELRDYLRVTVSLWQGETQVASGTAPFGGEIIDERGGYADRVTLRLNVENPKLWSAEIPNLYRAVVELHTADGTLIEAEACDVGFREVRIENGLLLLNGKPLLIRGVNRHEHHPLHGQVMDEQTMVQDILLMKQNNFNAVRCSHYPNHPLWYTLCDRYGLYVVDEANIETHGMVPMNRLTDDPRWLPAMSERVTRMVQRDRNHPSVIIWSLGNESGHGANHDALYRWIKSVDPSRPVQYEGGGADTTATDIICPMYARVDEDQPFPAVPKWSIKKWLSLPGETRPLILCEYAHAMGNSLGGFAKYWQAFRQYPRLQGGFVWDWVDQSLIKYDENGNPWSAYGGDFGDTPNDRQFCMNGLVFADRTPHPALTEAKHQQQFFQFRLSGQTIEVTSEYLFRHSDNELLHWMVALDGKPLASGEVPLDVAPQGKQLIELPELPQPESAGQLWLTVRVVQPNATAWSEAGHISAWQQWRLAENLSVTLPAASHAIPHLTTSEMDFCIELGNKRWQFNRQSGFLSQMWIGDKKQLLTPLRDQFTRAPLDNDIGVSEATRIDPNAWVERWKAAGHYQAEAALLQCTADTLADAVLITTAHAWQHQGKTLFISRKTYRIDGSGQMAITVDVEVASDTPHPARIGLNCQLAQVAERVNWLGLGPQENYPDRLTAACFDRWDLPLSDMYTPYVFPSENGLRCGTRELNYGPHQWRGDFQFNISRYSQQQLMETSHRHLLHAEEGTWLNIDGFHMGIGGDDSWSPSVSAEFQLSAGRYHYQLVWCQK

Row | Structure (SMILES) | EC50 [1] | EC50 [2] | EC50 [9] | EC50 [13] | IC50 [14] | IC50 [17] | IC50 [20] | other results
1 | CCN1C(=O)C(=Cc2cccc(OC)c2Oc2ccc([N+](=O)[O-])cc2[N+](=O)[O-])SC1=S | 3.5 µM (active) | 4.38 µM (active) | 2.22 µM (active) | 3.45 µM (inconclusive) |  |  |  | CC50 [3]: 3.96 µM (active); IC50 [4]: > 6.25 µM (active); AC50 [5]: 5.77 µM (active); AC50 [6]: 0.853 µM (active); IC50 [7]: > 40 µM (not active); EC50 [8]: 2.5 µM (inconclusive); AC50 [10]: 1.89 µM (active); EC50 [11]: > 40 µM (inactive); AC50 [12]: 7.11 µM (active)
2 | Cc1cccc2sc(NNC(=O)c3cc(=O)c4ccccc4o3)nc12 |  |  |  |  | 5.9 µM (active) | 35.2 µM (active) | 94 µM (active) | EC50 [15]: > 150 µM (not active); EC50 [16]: > 300 µM (not active); EC50 [18]: 7.43 µM (active); EC50 [19]: > 300 µM (not active); EC50 [21]: 0.449 µM (active)
3 | Cn1cccc1/C=C1\SC(Nc2ccc(O)cc2)=NC1=O | 0.357 µM (inconclusive) | 0.362 µM (active) | < 0.104 µM (active) | 0.926 µM (inconclusive) |  |  | 94.8 µM (active) | 
4 | Cc1ccc(Cl)cc1N1CCN(S(=O)(=O)c2ccc3[nH]c(=O)c(=O)[nH]c3c2)CC1 |  |  |  |  | 7.01 µM (active) | 52.8 µM (active) |  | 
5 | COc1cccc(Nc2nc(-c3sc(NC(=O)c4ccco4)nc3C)cs2)c1 |  |  |  |  | 13.5 µM (active) | 33.2 µM (active) |  | IC50 [22]: > 79 µM (inactive)
